Where two headings read alike, the source gives them in different places. Where a SMILES comes first, the peptide text is derived from it. [ ]: non-standard residue; d: D form. Nle = CCCC[C@H](N)C(=O)O
Target: T1, endogenous hPTHR1 (Homo sapiens, UniProt Q03431)
T1 construct: Saos-2, in which is endogenously expressed the hPTHR1; endogenous in cells
T1 sequence (Q03431 27-593): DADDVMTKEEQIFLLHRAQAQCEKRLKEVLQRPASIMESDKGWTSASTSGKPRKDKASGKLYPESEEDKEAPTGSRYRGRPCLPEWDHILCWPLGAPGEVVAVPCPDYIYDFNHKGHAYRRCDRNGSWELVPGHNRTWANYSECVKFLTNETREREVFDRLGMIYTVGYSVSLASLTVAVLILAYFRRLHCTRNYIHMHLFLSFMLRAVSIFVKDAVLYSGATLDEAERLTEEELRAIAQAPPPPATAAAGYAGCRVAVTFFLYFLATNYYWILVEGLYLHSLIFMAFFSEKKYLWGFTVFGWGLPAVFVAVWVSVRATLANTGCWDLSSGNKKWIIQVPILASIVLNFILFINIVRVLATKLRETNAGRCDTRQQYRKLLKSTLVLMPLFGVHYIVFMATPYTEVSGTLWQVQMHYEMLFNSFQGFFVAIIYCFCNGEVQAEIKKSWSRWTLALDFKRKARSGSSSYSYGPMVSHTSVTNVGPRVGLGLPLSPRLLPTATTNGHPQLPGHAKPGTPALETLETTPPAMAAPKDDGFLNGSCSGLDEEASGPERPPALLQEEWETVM
Assay: Antagonism of PTH(1-34)- and PTHrP(1-36)-induced cAMP response (GloSensor) in SGS-72 cells
Assay type: cell-based
Method in brief: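 SaOS2-derived SGS-72 cells, which express endogenous hPTHR1 and a stable GloSensor cAMP reporter, were loaded with 0.5 mM luciferin for 15 min at room temperature in CO2-independent medium with 0.1% BSA. Antagonist was tested against PTH(1-34) or PTHrP(1-36), with luminescence taken at the agonist-alone maximum; pIC50 came from four-parameter fits.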

[1] = IC50 PTH(1-34) (Table 6, nanomolar value), antagonist pre-treatment 15 minutes, PTH(1-34) 0.3 nM

Compound	IC50 [1] [nM]	also measured
CC[C@H](C)[C@H](N)C(=O)N[C@@H](CCC(N)=O)C(=O)N[C@@H](CC(C)C)C(=O)N[C@@H](CCSC)C(=O)N[C@@H](Cc1c[nH]cn1)C(=O)N[C@@H](CCC(N)=O)C(=O)N[C@@H](CCCNC(=N)N)C(=O)N[C@H](Cc1c[nH]c2ccccc12)C(=O)N[C@@H](CCCCN)C(=O)N[C@@H](Cc1c[nH]c2ccccc12)C(=O)N[C@H](C(=O)N[C@@H](CCC(N)=O)C(=O)N[C@@H](CC(=O)O)C(=O)N[C@@H](C)C(=O)N[C@@H](CCCNC(=N)N)C(=O)N[C@@H](CCCNC(=N)N)C(=O)N[C@@H](CCCNC(=N)N)C(=O)N[C@@H](C)C(=O)N[C@@H](Cc1c[nH]c2ccccc12)C(=O)N[C@@H](CC(C)C)C(=O)N[C@@H](Cc1c[nH]cn1)C(=O)N[C@@H](CCCCN)C(=O)N[C@@H](CC(C)C)C(=O)N[C@H](C(=O)N[C@@H](C)C(=O)N[C@@H](CCC(=O)O)C(=O)N[C@H](C(=O)N[C@@H](Cc1c[nH]cn1)C(=O)N[C@H](C(=O)N[C@@H](C)C(=O)N[C@@H](CCC(=O)O)C(=O)N[C@H](C(N)=O)[C@@H](C)CC)[C@@H](C)O)[C@@H](C)CC)[C@@H](C)CC)[C@@H](C)CC [compound 1949, dW12, W23-LA-PTH(5-36)] (H-IQLMHQR[dW]KWIQDARRRAWLHKLIAEIHTAEI-NH2; N-terminus assumed)	1.45	IC50 (antagonist pre-treatment 10 minutes, PTHrP(1-36) 0.3 nM, seven experiments, read-out: corresponding nanomolar value vs. PTHrP(1-36) (Table 5)): 1 nM; IC50 (antagonist pre-treatment 10 minutes, PTHrP(1-36) 0.3 nM, seven experiments, read-out: pIC50 vs. PTHrP(1-36) (Table 5) (converted)): 0.794 nM; IC50 (antagonist pre-treatment 15 minutes, PTHrP(1-36) 0.3 nM, read-out: IC50 PTHrP(1-36) (Table 6, nanomolar value)): 1.21 nM; IC50 (corresponding nanomolar value vs. PTH(1-34) (Table 5), antagonist pre-treatment 10 minutes, PTH(1-34) 0.3 nM, seven experiments): 1 nM; IC50 (pIC50 vs. PTH(1-34) (Table 5), antagonist pre-treatment 10 minutes, PTH(1-34) 0.3 nM, seven experiments): 0.776 nM
CC[C@H](C)[C@H](NC(=O)[C@H](CCC(=O)O)NC(=O)[C@H](C)NC(=O)[C@@H](NC(=O)[C@H](Cc1c[nH]cn1)NC(=O)[C@@H](NC(=O)[C@H](CCC(=O)O)NC(=O)[C@H](C)NC(=O)[C@@H](NC(=O)[C@H](CC(C)C)NC(=O)[C@H](CCCCN)NC(=O)[C@H](Cc1c[nH]cn1)NC(=O)[C@H](CC(C)C)NC(=O)[C@H](Cc1c[nH]c2ccccc12)NC(=O)[C@H](C)NC(=O)[C@H](CCCNC(=N)N)NC(=O)[C@H](CCCNC(=N)N)NC(=O)[C@H](CCCNC(=N)N)NC(=O)[C@H](C)NC(=O)[C@H](CC(=O)O)NC(=O)[C@H](CCC(N)=O)NC(=O)[C@@H](NC(=O)[C@H](Cc1c[nH]c2ccccc12)NC(=O)[C@H](CCCCN)NC(=O)[C@@H](Cc1c[nH]c2ccccc12)NC(=O)[C@H](CCCNC(=N)N)NC(=O)[C@H](CCC(N)=O)NC(=O)[C@H](Cc1c[nH]cn1)NC(=O)[C@H](CCSC)NC(=O)[C@@H](N)CC(C)C)[C@@H](C)CC)[C@@H](C)CC)[C@@H](C)CC)[C@@H](C)O)C(N)=O [compound 1990, dW12, W23-LA-PTH(7-36)-1990] (H-LMHQR[dW]KWIQDARRRAWLHKLIAEIHTAEI-NH2; N-terminus assumed)	1.23	–
CCCC[C@H](NC(=O)[C@@H](N)CC(C)C)C(=O)N[C@@H](Cc1c[nH]cn1)C(=O)N[C@@H](CCC(N)=O)C(=O)N[C@@H](CCCNC(=N)N)C(=O)N[C@H](Cc1c[nH]c2ccccc12)C(=O)N[C@@H](CCCCN)C(=O)N[C@@H](Cc1c[nH]c2ccccc12)C(=O)N[C@H](C(=O)N[C@@H](CCC(N)=O)C(=O)N[C@@H](CC(=O)O)C(=O)N[C@@H](C)C(=O)N[C@@H](CCCNC(=N)N)C(=O)N[C@@H](CCCNC(=N)N)C(=O)N[C@@H](CCCNC(=N)N)C(=O)N[C@@H](C)C(=O)N[C@@H](Cc1c[nH]c2ccccc12)C(=O)N[C@@H](CC(C)C)C(=O)N[C@@H](Cc1c[nH]cn1)C(=O)N[C@@H](CCCCN)C(=O)N[C@@H](CC(C)C)C(=O)N[C@H](C(=O)N[C@@H](C)C(=O)N[C@@H](CCC(=O)O)C(=O)N[C@H](C(=O)N[C@@H](Cc1c[nH]cn1)C(=O)N[C@H](C(=O)N[C@@H](C)C(=O)N[C@@H](CCC(=O)O)C(=O)N[C@H](C(N)=O)[C@@H](C)CC)[C@@H](C)O)[C@@H](C)CC)[C@@H](C)CC)[C@@H](C)CC [compound 1992, Nle8, dW12, W23-LA-PTH(7-36)-1992] (H-L[Nle]HQR[dW]KWIQDARRRAWLHKLIAEIHTAEI-NH2; N-terminus assumed)	1.55	–
CCCC[C@H](NC(=O)[C@@H](N)CC(C)C)C(=O)N[C@@H](Cc1c[nH]cn1)C(=O)N[C@@H](CCC(N)=O)C(=O)N[C@@H](CC(C)C)C(=O)N[C@H](Cc1c[nH]c2ccccc12)C(=O)N[C@@H](CCCCN)C(=O)N[C@@H](Cc1c[nH]c2ccccc12)C(=O)N[C@H](C(=O)N[C@@H](CCC(N)=O)C(=O)N[C@@H](CC(=O)O)C(=O)N[C@@H](C)C(=O)N[C@@H](CCCNC(=N)N)C(=O)N[C@@H](CCCNC(=N)N)C(=O)N[C@@H](CCCNC(=N)N)C(=O)N[C@@H](C)C(=O)N[C@@H](Cc1c[nH]c2ccccc12)C(=O)N[C@@H](CC(C)C)C(=O)N[C@@H](Cc1c[nH]cn1)C(=O)N[C@@H](CCCCN)C(=O)N[C@@H](CC(C)C)C(=O)N[C@H](C(=O)N[C@@H](C)C(=O)N[C@@H](CCC(=O)O)C(=O)N[C@H](C(=O)N[C@@H](Cc1c[nH]cn1)C(=O)N[C@H](C(=O)N[C@@H](C)C(=O)N[C@@H](CCC(=O)O)C(=O)N[C@H](C(N)=O)[C@@H](C)CC)[C@@H](C)O)[C@@H](C)CC)[C@@H](C)CC)[C@@H](C)CC [compound 1997, Nle8,L11, dW12, W23-LA-PTH(7-36)-1997] (H-L[Nle]HQL[dW]KWIQDARRRAWLHKLIAEIHTAEI-NH2; N-terminus assumed)	2.1	–
CCCC[C@H](NC(=O)[C@H](CC(C)C)NC(=O)[C@H](CCC(N)=O)NC(=O)[C@@H](N)[C@@H](C)CC)C(=O)N[C@@H](Cc1c[nH]cn1)C(=O)N[C@@H](CCC(N)=O)C(=O)N[C@@H](CC(C)C)C(=O)N[C@H](Cc1c[nH]c2ccccc12)C(=O)N[C@@H](CCCCN)C(=O)N[C@@H](Cc1c[nH]c2ccccc12)C(=O)N[C@H](C(=O)N[C@@H](CCC(N)=O)C(=O)N[C@@H](CC(=O)O)C(=O)N[C@@H](C)C(=O)N[C@@H](CCCNC(=N)N)C(=O)N[C@@H](CCCNC(=N)N)C(=O)N[C@@H](CCCNC(=N)N)C(=O)N[C@@H](C)C(=O)N[C@@H](Cc1c[nH]c2ccccc12)C(=O)N[C@@H](CC(C)C)C(=O)N[C@@H](Cc1c[nH]cn1)C(=O)N[C@@H](CCCCN)C(=O)N[C@@H](CC(C)C)C(=O)N[C@H](C(=O)N[C@@H](C)C(=O)N[C@@H](CCC(=O)O)C(=O)N[C@H](C(=O)N[C@@H](Cc1c[nH]cn1)C(=O)N[C@H](C(=O)N[C@@H](C)C(=O)N[C@@H](CCC(=O)O)C(=O)N[C@H](C(N)=O)[C@@H](C)CC)[C@@H](C)O)[C@@H](C)CC)[C@@H](C)CC)[C@@H](C)CC [compound 1999, Nle8, L11, dW12, W23-LA-PTH(5-36)-1999] (H-IQL[Nle]HQL[dW]KWIQDARRRAWLHKLIAEIHTAEI-NH2; N-terminus assumed)	2.75	–
CC[C@H](C)[C@H](NC(=O)[C@H](CCC(=O)O)NC(=O)[C@H](C)NC(=O)[C@@H](NC(=O)[C@H](Cc1c[nH]cn1)NC(=O)[C@@H](NC(=O)[C@H](CCC(=O)O)NC(=O)[C@H](C)NC(=O)[C@@H](NC(=O)[C@H](CC(C)C)NC(=O)[C@H](CCCCN)NC(=O)[C@H](Cc1c[nH]cn1)NC(=O)[C@H](CC(C)C)NC(=O)[C@H](Cc1c[nH]c2ccccc12)NC(=O)[C@H](C)NC(=O)[C@H](CCCNC(=N)N)NC(=O)[C@H](CCCNC(=N)N)NC(=O)[C@H](CCCNC(=N)N)NC(=O)[C@H](C)NC(=O)[C@H](CC(=O)O)NC(=O)[C@H](CCC(N)=O)NC(=O)[C@@H](NC(=O)[C@H](Cc1c[nH]c2ccccc12)NC(=O)[C@H](CCCCN)NC(=O)[C@@H](Cc1c[nH]c2ccccc12)NC(=O)[C@H](CC(C)C)NC(=O)[C@H](CCC(N)=O)NC(=O)[C@H](Cc1c[nH]cn1)NC(=O)[C@H](CCSC)NC(=O)[C@@H](N)CC(C)C)[C@@H](C)CC)[C@@H](C)CC)[C@@H](C)CC)[C@@H](C)O)C(N)=O [compound 2001, L11, dW12, W23-LA-PTH(7-36)-2001] (H-LMHQL[dW]KWIQDARRRAWLHKLIAEIHTAEI-NH2; N-terminus assumed)	2.08	–

— US20190119348A1, “PARATHYROID HORMONE RECEPTOR 1 ANTAGONIST AND INVERSE AGONIST POLYPEPTIDES AND METHODS OF THEIR USE” (The General Hospital Corporation, priority 2016, published 2019)
